Key:
[1] = tested on: kochia; test: Test A postemergence; assay type: in vivo, Kochia scoparia; conditions: 0 to 100 scale where 0 is no effect and 100 is complete control
In short: (§1)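 Visual 0–100 rating (100 = complete control) taken about 10 d post-treatment relative to untreated checks. Preemergence: directed soil spray on sown loam/sand pots. Postemergence: seedlings 2–10 cm, 1–2 leaf. Non-phytotoxic solvent formulation with surfactant.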

[2] = tested on: ragweed; test: Test C preemergence; assay type: in vivo, Ambrosia elatior; conditions: for Ragweed plant response rating: preemergence
In short: (§2)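 Sown in loam/sand → sprayed pre-emergence; or grown to 1–4 leaves in peat mix → sprayed post-emergence. Same solvent/surfactant formulation both ways. Greenhouse 13–15 d. Score 0–100 visual.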

[3] = tested on: johnsongrass; test: Test C preemergence; assay type: in vivo, Sorghum halepense; conditions: for Johnsongrass plant response rating: preemergence
In short: as §2

[4] = tested on: oilseed rape; test: Test C preemergence; assay type: in vivo, Brassica napus; conditions: for Oilseed Rape plant response rating: preemergence
In short: as §2

[5] = tested on: Italian ryegrass; test: Test A preemergence; assay type: in vivo, Lolium multiflorum
In short: as §1

[6] = tested on: Italian ryegrass; test: Test C preemergence; assay type: in vivo, Lolium multiflorum; conditions: for Ryegrass, Italian plant response rating: preemergence
In short: as §2

[7] = tested on: soybean; test: Test C preemergence; assay type: in vivo, Glycine max; conditions: for Soybean plant response rating: preemergence
In short: as §2

[8] = tested on: barnyardgrass; test: Test C preemergence; assay type: in vivo, Echinochloa crus-galli; conditions: for Barnyardgrass plant response rating: preemergence
In short: as §2

[9] = tested on: velvetleaf; test: Test C preemergence; assay type: in vivo, Abutilon theophrasti; conditions: for Velvetleaf plant response rating: preemergence
In short: as §2

[10] = tested on: large (Lg) crabgrass; test: Test C preemergence; assay type: in vivo, Digitaria sanguinalis; conditions: for Crabgrass, Large plant response rating: preemergence
In short: as §2

[11] = tested on: wheat, winter; test: Test C preemergence; assay type: in vivo, Triticum aestivum; conditions: for Wheat plant response rating: preemergence
In short: as §2

[12] = tested on: ragweed; test: Test A preemergence; assay type: in vivo, Ambrosia elatior
In short: as §1

[13] = tested on: waterhemp; test: Test C preemergence; assay type: in vivo, Amaranthus rudis; conditions: for Waterhemp plant response rating: preemergence
In short: as §2

[14] = tested on: kochia; test: Test A preemergence; assay type: in vivo, Kochia scoparia
In short: as §1

[15] = tested on: galium; test: Test A postemergence; assay type: in vivo, Galium aparine; conditions: 0 to 100 scale where 0 is no effect and 100 is complete control
In short: as §1

[16] = tested on: blackgrass; test: Test C preemergence; assay type: in vivo, Alopecurus myosuroides; conditions: for Blackgrass plant response rating: preemergence
In short: as §2

[17] = tested on: ragweed; test: Test A postemergence; assay type: in vivo, Ambrosia elatior; conditions: 0 to 100 scale where 0 is no effect and 100 is complete control
In short: as §1

[18] = tested on: giant foxtail; test: Test C preemergence; assay type: in vivo, Setaria faberii; conditions: for Foxtail, Giant plant response rating: preemergence
In short: as §2

[19] = tested on: pigweed; test: Test C preemergence; assay type: in vivo, Amaranthus retroflexus; conditions: for Pigweed plant response rating: preemergence
In short: as §2

[20] = 16 g ai/ha, scale 0 to 100 (0 no effect, 100 complete control)
[21] = 62 g ai/ha, scale 0 (no effect) to 100 (complete control)
[22] = 125 g ai/ha, scale 0 (no effect) to 100 (complete control)
[23] = Preemergence, 31 g ai/ha, scale 0 to 100, 0 no effect, 100 complete control
[24] = 125 g ai/ha, 0 to 100 scale where 0 is no effect and 100 is complete control
[25] = 500 g ai/ha, 0 to 100 scale, 0 no effect, 100 complete control, approx. 10 days

Cc1cnc(Oc2cccc(C#N)c2-n2cc(C#N)cn2)nc1 [Compound 90]
Plant response rating, Kochia ([1]; 125 g ai/ha): 90 | Plant response rating, Kochia ([1]; 500 g ai/ha): 100 | Ragweed plant response rating [2, 20]: 10 | Ragweed plant response rating [2, 21]: 100 | Ragweed plant response rating [2, 22]: 95 | Plant response rating, Ragweed [2, 23]: 60 | Johnsongrass plant response rating [3, 20]: 5 | Johnsongrass plant response rating [3, 21]: 20 | Johnsongrass plant response rating [3, 22]: 80 | Plant response rating, Johnsongrass [3, 23]: 10 | Oilseed Rape plant response rating [4, 20]: 60 | Oilseed Rape plant response rating [4, 21]: 98 | Oilseed Rape plant response rating [4, 22]: 100 | Plant response rating, Oilseed Rape [4, 23]: 80 | Plant response rating, Ryegrass, Italian [5, 24]: 0 | Ryegrass, Italian plant response rating [5, 25]: 30 | Ryegrass, Italian plant response rating [6, 20]: 0 | Ryegrass, Italian plant response rating [6, 21]: 0 | Ryegrass, Italian plant response rating [6, 22]: 50 | Plant response rating, Ryegrass, Italian [6, 23]: 0 | Soybean plant response rating [7, 20]: 25 | Soybean plant response rating [7, 21]: 65 | Soybean plant response rating [7, 22]: 95 | Plant response rating, Soybean [7, 23]: 35 | Barnyardgrass plant response rating [8, 20]: 0 | Barnyardgrass plant response rating [8, 21]: 75 | Barnyardgrass plant response rating [8, 22]: 85 | Plant response rating, Barnyardgrass [8, 23]: 5 | Velvetleaf plant response rating [9, 20]: 35 | Velvetleaf plant response rating [9, 21]: 98 | Velvetleaf plant response rating [9, 22]: 100 | Plant response rating, Velvetleaf [9, 23]: 65 | Crabgrass, Large plant response rating [10, 20]: 25 | Crabgrass, Large plant response rating [10, 21]: 98 | Crabgrass, Large plant response rating [10, 22]: 100 | Plant response rating, Crabgrass, Large [10, 23]: 98 | Wheat plant response rating [11, 20]: 0 | Wheat plant response rating [11, 21]: 0 | Wheat plant response rating [11, 22]: 0 | Plant response rating, Wheat [11, 23]: 0 | Plant response rating, Ragweed [12, 24]: 50 | Ragweed plant response rating [12, 25]: 80 | Waterhemp plant response rating [13, 20]: 85 | Waterhemp plant response rating [13, 21]: 100 | Waterhemp plant response rating [13, 22]: 100 | Plant response rating, Waterhemp [13, 23]: 100 | Plant response rating, Kochia [14, 24]: 100 | Kochia plant response rating [14, 25]: 100 | Plant response rating, Galium ([15]; 125 g ai/ha): 90 | Plant response rating, Galium ([15]; 500 g ai/ha): 100 | Blackgrass plant response rating [16, 20]: 5 | Blackgrass plant response rating [16, 21]: 30 | Blackgrass plant response rating [16, 22]: 85 | Plant response rating, Blackgrass [16, 23]: 5 | Plant response rating, Ragweed ([17]; 125 g ai/ha): 60 | Plant response rating, Ragweed ([17]; 500 g ai/ha): 80 | Foxtail, Giant plant response rating [18, 20]: 5 | Foxtail, Giant plant response rating [18, 21]: 75 | Foxtail, Giant plant response rating [18, 22]: 100 | Plant response rating, Foxtail, Giant [18, 23]: 45 | Pigweed plant response rating [19, 20]: 40 | Pigweed plant response rating [19, 21]: 98 | Pigweed plant response rating [19, 22]: 100 | Plant response rating, Pigweed [19, 23]: 85
